# Active and inactive are the calls of the source.
# Legend:
# [1] = Counterscreen for […] of the human trace amine associated receptor 1 (TAAR1): Fluorescence-based cell-based high throughput dose response assay to identify nonselective Ga16 agonists.; type: functional
# [2] = target: T1, Trace amine-associated receptor 1 (Homo sapiens, UniProt Q96RJ0); test: Counterscreen for antagonists of the human trace amine associated receptor 1 (hTAAR1): Fluorescence-based cell-based high throughput dose response assay to identify TAAR1 Agonists.; type: functional
# T1 sequence (Q96RJ0 whole entry): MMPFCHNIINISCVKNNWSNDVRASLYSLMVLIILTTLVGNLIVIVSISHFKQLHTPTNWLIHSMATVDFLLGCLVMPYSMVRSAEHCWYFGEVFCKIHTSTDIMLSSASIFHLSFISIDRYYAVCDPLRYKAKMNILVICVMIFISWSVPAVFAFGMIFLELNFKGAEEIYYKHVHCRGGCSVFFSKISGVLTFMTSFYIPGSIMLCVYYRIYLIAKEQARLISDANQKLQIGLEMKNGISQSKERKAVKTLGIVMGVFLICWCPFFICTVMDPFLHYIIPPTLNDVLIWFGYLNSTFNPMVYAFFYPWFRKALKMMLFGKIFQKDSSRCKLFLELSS
# [3] = Counterscreen for antagonists of the human trace amine associated receptor 1 (hTAAR1): Fluorescence-based cell-based high throughput dose response assay to identify nonselective Ga16 antagonists.; type: functional
# [4] = target: T1, Trace amine-associated receptor 1; test: Fluorescence-based cell-based high throughput dose response assay to identify antagonists of the human trace amine associated receptor 1 (TAAR1).; type: functional
# H9c2 = test: cells; type: functional, cell-based; conditions: Rattus norvegicus, H9c2, Myocardium;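 also: confirmatory concentration-response retest of ultra-high-throughput screening hits for modulation of myocardial damage; cell death induced by hydrogen peroxide oxidative stress; compound pretreatment for 60 min then peroxide exposure for 2 h; potency is for protecting the cells against peroxide damage rather than for killing them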
# Protein skinhead-1 = target: T2, Protein skinhead-1 (Caenorhabditis elegans, UniProt P34707); type: functional
# T2 sequence (P34707 whole entry): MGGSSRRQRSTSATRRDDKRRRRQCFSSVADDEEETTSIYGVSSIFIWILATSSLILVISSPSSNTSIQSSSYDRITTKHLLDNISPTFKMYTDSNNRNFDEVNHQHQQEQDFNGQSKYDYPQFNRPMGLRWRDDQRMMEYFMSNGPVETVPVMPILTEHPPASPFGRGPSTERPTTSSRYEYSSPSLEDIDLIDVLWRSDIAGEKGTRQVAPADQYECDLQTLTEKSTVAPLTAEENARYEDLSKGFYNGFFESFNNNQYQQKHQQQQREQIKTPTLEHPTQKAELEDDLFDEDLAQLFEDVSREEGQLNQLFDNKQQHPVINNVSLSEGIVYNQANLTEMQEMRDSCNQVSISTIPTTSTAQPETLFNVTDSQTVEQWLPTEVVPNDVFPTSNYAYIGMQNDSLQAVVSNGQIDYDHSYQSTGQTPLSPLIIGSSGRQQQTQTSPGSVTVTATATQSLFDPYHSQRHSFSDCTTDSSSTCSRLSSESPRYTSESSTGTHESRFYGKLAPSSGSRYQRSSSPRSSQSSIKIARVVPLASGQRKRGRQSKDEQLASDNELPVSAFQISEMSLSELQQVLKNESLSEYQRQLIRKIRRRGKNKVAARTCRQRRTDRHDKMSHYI
# cells [5] = conditions: HEK293
# [6] = target: Potassium channel subfamily K member 9 (Homo sapiens, UniProt Q9NPC2); test: KCNK9 flux blockade, concentration-response – cell-based, FluxOR thallium flux, selectivity assay for TASK1 inhibitor project, SAR follow-up (AID 652211); type: functional;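 also: potency is for inhibitors of the channel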
# [7] = A Cell-Based Confirmatory Screen for Compounds that Inhibit VEEV, TC-83 (3).; type: functional
# [8] = viability loss in HepG2 hepatoma cells – cell-based, cherry-picks, set 5, cytotoxicity control, dose response (AID 1053118); type: functional
# [9] = viability loss in HEK293 kidney cells – cell-based, cherry-picks, set 5, cytotoxicity control, dose response (AID 1053117); type: functional
# [10] = target: T3, Oxysterols receptor LXR-beta (Homo sapiens, UniProt P55055); type: functional, cell-based;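 also: agonist activity at LXR measured by a cell-based luminescence readout across a dose range, run as a counterscreen for daf-12 agonists; HEK293 cells with Gal4-LXR fusion and GAL4-driven luciferase reporter; potency for activation of Gal4-LXR reporter so compounds are agonists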
# T3 sequence (P55055 whole entry): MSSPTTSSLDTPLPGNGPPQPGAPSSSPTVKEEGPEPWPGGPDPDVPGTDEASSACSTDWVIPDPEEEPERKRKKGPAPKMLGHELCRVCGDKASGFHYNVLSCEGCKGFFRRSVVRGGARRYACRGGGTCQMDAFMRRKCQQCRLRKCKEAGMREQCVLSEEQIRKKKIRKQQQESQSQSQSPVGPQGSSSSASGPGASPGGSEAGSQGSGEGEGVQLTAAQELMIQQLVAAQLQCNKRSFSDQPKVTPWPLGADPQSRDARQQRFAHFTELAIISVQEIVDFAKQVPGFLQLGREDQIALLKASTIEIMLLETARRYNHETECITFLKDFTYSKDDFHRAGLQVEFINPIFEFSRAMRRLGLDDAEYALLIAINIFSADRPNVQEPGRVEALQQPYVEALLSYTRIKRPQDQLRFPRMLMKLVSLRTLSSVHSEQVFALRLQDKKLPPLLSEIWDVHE
# cells [11] = type: functional, cell-based
# cells [12] = type: functional, cell-based; remark: listed apart in the source
# [13] = target: Nuclear receptor subfamily 0 group B member 1 (Homo sapiens, UniProt P51843); type: functional, cell-based;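 also: HEK293T cells transfected with SF-1 and DAX-1 plus StAR promoter luciferase reporter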
# cells [14] = type: functional, cell-based; remark: listed apart in the source
# Vero = test: viability loss in Vero cells – cell-based, plate reader, cherry-pick samples, cytotoxicity control, dose response (AID 687020); type: functional; conditions: Chlorocebus sabaeus
# [15] = target: 1-phosphatidylinositol 4,5-bisphosphate phosphodiesterase gamma-1 (Homo sapiens, UniProt P19174); test: Counterscreen for inhibitors of phospholipase C isozymes (PLC-B3): Fluorescence-based biochemical high throughput dose response assay to identify inhibitors of phospholipase C isozymes (PLC-gamma1).
# Chain of 1-phosphatidylinositol 4,5-bisphosphate phosphodiesterase gamma-1 (P19174 whole entry): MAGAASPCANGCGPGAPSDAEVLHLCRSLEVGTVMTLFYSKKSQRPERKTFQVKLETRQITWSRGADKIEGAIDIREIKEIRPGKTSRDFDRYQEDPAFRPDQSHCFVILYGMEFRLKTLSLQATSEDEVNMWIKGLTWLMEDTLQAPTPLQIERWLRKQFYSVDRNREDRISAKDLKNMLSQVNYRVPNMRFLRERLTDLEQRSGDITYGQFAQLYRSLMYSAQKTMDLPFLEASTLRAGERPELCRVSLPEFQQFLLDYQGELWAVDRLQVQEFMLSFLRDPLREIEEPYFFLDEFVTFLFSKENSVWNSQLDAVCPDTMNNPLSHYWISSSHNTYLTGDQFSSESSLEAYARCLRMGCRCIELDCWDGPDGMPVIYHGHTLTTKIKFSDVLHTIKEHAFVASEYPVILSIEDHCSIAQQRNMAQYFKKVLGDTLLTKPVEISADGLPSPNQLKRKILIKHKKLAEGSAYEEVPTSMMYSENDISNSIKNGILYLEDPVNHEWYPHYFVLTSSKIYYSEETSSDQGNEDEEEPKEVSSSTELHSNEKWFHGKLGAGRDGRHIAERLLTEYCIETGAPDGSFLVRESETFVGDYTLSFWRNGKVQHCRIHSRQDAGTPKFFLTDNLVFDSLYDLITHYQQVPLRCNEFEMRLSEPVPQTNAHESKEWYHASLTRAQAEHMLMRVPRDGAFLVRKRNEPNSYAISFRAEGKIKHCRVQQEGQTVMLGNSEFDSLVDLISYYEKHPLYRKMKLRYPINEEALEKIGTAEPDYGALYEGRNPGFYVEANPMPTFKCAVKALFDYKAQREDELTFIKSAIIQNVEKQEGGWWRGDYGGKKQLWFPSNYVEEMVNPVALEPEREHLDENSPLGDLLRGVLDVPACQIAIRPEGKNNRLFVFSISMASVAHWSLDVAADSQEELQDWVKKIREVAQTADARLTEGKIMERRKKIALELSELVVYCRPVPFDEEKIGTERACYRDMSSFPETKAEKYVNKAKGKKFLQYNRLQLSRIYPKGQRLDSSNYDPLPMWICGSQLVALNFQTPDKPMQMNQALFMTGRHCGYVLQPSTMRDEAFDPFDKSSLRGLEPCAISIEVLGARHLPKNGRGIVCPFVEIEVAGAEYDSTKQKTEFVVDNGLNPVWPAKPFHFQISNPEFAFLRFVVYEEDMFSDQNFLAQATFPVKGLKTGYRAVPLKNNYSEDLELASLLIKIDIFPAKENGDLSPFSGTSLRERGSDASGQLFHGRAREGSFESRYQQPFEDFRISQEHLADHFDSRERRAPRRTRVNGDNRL
# [16] = target: 1-phosphatidylinositol 4,5-bisphosphate phosphodiesterase beta-3 (Homo sapiens, UniProt Q01970); test: Fluorescence-based biochemical high throughput dose response assay to identify inhibitors of phospholipase C isozymes (PLC-B3).
# Chain of 1-phosphatidylinositol 4,5-bisphosphate phosphodiesterase beta-3 (Q01970 whole entry): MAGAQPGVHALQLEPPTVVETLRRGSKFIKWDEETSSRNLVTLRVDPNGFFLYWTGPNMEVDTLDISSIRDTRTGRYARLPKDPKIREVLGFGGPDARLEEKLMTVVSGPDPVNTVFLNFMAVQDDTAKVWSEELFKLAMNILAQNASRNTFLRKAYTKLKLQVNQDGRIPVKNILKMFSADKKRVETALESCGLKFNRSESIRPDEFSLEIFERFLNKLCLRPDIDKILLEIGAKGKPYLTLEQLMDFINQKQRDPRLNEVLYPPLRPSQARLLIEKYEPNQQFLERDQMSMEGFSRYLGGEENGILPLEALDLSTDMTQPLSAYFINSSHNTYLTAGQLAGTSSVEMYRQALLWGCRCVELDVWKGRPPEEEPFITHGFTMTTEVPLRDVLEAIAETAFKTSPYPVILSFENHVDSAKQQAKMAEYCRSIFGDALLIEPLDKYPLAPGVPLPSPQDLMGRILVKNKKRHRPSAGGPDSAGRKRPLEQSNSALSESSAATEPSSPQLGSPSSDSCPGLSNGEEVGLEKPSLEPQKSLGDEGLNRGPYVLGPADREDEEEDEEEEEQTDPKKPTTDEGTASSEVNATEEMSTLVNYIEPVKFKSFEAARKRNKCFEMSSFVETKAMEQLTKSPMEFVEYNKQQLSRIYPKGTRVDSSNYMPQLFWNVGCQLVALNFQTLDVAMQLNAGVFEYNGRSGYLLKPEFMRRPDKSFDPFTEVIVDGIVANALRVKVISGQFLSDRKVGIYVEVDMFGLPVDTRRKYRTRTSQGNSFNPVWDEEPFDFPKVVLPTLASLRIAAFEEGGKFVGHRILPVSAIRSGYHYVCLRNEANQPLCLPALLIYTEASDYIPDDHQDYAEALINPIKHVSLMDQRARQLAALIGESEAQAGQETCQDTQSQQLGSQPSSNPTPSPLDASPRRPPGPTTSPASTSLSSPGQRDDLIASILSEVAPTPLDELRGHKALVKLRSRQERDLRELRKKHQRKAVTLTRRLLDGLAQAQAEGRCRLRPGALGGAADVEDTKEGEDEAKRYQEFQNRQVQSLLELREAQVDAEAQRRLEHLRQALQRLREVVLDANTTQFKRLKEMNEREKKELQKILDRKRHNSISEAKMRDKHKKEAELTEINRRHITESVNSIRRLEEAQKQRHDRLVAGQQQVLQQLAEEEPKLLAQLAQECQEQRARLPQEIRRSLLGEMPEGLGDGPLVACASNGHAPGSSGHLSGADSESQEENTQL
# [17] = target: Metabotropic glutamate receptor 3 (Rattus norvegicus, UniProt P31422); test: inhibitors of rat mGlu3 Galpha15 signaling – TREx293 cells, calcium flux, mGlu3 NAM project, dose response (AID 651840); type: functional
# Chain of Metabotropic glutamate receptor 3 (P31422 whole entry): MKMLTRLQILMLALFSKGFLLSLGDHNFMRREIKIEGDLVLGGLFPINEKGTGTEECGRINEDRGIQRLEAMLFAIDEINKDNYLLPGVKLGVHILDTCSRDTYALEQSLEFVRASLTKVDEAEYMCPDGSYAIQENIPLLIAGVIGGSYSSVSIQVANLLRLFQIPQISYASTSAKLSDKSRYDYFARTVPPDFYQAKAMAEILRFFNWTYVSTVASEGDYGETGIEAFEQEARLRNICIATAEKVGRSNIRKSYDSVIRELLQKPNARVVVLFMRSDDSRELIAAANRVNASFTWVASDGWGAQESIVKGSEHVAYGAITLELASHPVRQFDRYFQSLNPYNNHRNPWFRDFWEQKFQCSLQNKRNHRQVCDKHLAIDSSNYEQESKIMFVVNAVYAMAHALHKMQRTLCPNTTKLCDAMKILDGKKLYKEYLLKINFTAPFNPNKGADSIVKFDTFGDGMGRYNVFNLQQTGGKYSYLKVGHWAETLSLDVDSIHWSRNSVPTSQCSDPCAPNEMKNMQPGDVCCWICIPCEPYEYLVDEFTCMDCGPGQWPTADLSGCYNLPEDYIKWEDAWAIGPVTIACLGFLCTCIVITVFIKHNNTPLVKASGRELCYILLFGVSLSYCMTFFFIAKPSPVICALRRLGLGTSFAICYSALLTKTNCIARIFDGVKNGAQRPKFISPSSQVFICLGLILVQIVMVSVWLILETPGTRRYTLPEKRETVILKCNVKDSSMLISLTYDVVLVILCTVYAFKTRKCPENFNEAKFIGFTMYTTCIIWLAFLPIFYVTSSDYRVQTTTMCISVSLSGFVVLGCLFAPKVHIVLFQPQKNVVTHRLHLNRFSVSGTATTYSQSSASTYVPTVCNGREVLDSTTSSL
# Beta-lactamase [18] = target: T4, Beta-lactamase (Pseudomonas aeruginosa, UniProt Q79MP6); test: inhibition of IMP-1 beta-lactamase activity – biochemical, epi-absorbance, selectivity assay for VIM-2 inhibitor project, dose response (AID 1920)
# T4 sequence (Q79MP6 whole entry): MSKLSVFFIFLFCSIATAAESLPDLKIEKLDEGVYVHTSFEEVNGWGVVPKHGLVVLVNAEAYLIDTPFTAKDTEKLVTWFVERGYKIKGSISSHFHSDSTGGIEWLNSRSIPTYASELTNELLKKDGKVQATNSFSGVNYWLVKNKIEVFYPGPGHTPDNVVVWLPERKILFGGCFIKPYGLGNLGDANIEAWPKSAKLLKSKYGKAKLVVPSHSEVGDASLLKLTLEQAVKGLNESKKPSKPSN
# Beta-lactamase [19] = target: T4, Beta-lactamase; test: […] counterscreen for selective VIM-2 inhibitors: dose response biochemical high throughput screening assay to identify inhibitors of IMP-1 metallo-beta-lactamase.
# Beta-lactamase [20] = target: Beta-lactamase (Salmonella choleraesuis (strain SC-B67), UniProt Q5J463); test: Epi-absorbance-based counterscreen for selective VIM-2 inhibitors: dose response biochemical high throughput screening assay to identify inhibitors of TEM-1 serine-beta-lactamase.
# Chain of Beta-lactamase (Salmonella choleraesuis (strain SC-B67), UniProt Q5J463) (Q5J463 whole entry): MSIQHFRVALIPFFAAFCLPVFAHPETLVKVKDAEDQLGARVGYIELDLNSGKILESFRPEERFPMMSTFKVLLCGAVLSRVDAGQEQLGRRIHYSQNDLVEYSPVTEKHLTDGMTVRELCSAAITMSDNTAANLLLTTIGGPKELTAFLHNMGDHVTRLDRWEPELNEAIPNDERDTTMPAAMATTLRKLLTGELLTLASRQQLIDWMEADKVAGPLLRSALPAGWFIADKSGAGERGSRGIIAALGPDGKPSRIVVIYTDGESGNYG
# [21] = Luminescence Cell-Based Dose Confirmation HTS to Identify Inhibitors of Platelet Dense Granule Release. [Related pubchem assays: 1663 (Primary HTS), 1678 (Summary of Project)]; type: functional
# [22] = target: Luciferin 4-monooxygenase (Photinus pyralis, UniProt P08659); test: inhibition of purified Photinus pyralis luciferase – biochemical, luminescence, dose response (AID 1891)
# Galanin receptor type 3 = Galanin receptor type 3 (Homo sapiens, UniProt O60755); test: Fluorescence-based cell-based primary high throughput dose response assay to identify antagonists of the Galanin Receptor 3 (GalR3).; type: functional
# cells [23] = type: functional, cell-based; conditions: HEK-CNG
# [24] = target: T5, Beta-2 adrenergic receptor (Homo sapiens, UniProt P07550); test: ADRB2 activation measured by internalization – cell-based, FAP fluorogen, flow cytometry, cherry pick 1, dose response (AID 588763); type: functional
# T5 sequence (P07550 whole entry): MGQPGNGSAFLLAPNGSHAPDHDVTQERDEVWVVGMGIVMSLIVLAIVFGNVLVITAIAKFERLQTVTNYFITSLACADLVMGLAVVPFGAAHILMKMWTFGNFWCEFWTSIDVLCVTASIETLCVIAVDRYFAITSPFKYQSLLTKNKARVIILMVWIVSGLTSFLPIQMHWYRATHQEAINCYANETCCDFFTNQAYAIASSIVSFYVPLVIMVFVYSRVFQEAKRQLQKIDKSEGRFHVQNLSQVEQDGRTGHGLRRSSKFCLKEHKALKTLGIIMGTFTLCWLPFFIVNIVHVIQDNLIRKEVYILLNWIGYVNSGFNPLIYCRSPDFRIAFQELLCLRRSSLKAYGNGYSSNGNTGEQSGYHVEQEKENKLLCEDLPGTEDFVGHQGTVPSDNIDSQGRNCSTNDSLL
# [25] = target: T5, Beta-2 adrenergic receptor; test: Dose response for HTS for Beta-2AR agonists via FAP method from Powderset2.; type: functional
# cells [26] = test: cells
# [27] = target: T6, Diacylglycerol lipase-beta (Mus musculus, UniProt Q91WC9); test: Late stage assay provider results from the probe development effort to identify inhibitors of diacylglycerol lipase, beta (DAGLb): fluorescence-based dose-response biochemical gel-based competitive Activity-Based Protein Profiling (ABPP) inhibition of DAGLb in vitro.; type: functional
# T6 sequence (Q91WC9 whole entry): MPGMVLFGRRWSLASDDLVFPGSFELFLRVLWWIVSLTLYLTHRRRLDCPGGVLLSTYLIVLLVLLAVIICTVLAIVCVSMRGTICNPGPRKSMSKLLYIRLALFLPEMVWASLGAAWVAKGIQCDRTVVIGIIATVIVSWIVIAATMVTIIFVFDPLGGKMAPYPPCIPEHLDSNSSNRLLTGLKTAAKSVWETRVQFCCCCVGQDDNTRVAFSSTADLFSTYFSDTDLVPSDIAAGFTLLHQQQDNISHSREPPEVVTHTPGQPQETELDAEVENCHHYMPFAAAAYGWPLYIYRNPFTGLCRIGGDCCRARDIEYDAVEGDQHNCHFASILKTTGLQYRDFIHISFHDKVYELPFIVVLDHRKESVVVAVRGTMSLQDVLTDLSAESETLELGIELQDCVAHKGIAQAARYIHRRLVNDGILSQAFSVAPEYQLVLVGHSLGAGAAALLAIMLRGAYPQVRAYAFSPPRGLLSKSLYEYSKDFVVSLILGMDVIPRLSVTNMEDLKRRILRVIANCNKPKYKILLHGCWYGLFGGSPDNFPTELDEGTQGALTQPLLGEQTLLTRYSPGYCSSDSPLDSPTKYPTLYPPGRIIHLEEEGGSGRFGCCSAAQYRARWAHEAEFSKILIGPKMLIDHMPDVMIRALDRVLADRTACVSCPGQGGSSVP
# [28] = target: Monoacylglycerol lipase ABHD6 (Mus musculus, UniProt Q8R2Y0); test: Late stage assay provider results from the probe development effort to identify inhibitors of diacylglycerol lipase, beta (DAGLb): fluorescence-based dose-response biochemical gel-based competitive Activity-Based Protein Profiling (ABPP) inhibition of antitarget ABHD6 in vitro, set 2.; type: functional
# [29] = target: T6, Diacylglycerol lipase-beta; test: Late stage assay provider results from the probe development effort to identify inhibitors of diacylglycerol lipase, beta (DAGLb): LCMS-based biochemical dose response assay.; type: functional
# [30] = target: Botulinum neurotoxin type F (Clostridium botulinum, UniProt P30996); test: High-throughput multiplex microsphere dose response for inhibitors of toxin protease, specifically Botulinum neurotoxin light chain F protease, compounds from Cherry Pick 02.; type: functional; conditions: read-out: EC50_MICROM
# [31] = target: Latent membrane protein 1 (Human herpesvirus 4 (strain B95-8), UniProt P03230); test: LMP1 TES1 pathway selectivity over dsRED control – imaging, HEK293T, dual-color eGFP/dsRED, cherry-picks, selectivity assay for LMP1 NF-kB inhibitor project, dose response (AID 588398); type: functional, cell-based
# [32] = target: T5, Beta-2 adrenergic receptor; test: Dose response for HTS for Beta-2AR agonists via FAP method from Powderset3.; type: functional
# Beta-galactosidase = Beta-galactosidase (Escherichia coli, UniProt Q8VNN2); test: Dose response counterscreen for EBI2 assay utilizing the enzyme, b-galactosidase.; type: functional
# [33] = target: T7, Sentrin-specific protease 8 (Homo sapiens, UniProt Q96LD8); type: functional
# T7 sequence (Q96LD8 whole entry): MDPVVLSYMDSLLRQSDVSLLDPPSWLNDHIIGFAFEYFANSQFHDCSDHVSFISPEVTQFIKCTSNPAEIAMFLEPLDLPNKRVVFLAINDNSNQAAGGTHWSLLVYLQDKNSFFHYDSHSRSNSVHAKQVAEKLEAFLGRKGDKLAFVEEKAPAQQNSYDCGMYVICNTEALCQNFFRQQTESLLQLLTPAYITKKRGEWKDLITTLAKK
# [34] = target: T7, Sentrin-specific protease 8; type: functional; remark: listed apart in the source
# Caspase-3 = target: T8, Caspase-3 (Homo sapiens, UniProt P42574); test: Dose-response confirmation of uHTS inhibitor hits of Sentrin-Specific Protease 8 in a Caspase-3 Fluorescence assay.; type: functional
# T8 sequence (P42574 whole entry): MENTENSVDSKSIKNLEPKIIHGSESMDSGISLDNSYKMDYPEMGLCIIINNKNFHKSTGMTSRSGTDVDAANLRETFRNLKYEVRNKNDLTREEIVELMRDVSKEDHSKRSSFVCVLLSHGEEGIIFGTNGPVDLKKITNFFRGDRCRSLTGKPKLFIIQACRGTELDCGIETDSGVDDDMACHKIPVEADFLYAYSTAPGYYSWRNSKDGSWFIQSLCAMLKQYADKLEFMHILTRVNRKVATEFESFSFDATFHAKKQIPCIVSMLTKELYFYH
compound,measurement,setting,value
CN1C(=O)CSc2ccc(NC(=O)Nc3ccccn3)cc21,EC50,[1],> 29.9 µM (inactive)
same,EC50,[2],> 29.9 µM (inactive)
same,IC50,[3],> 29.9 µM (inactive)
same,IC50,[4],5.8 µM (active)
same,IC50,H9c2,49 µM (inactive)
Cc1cc2cc(CNC(=O)c3ccco3)ccc2n1C,IC50,Protein skinhead-1,73.3 µM (inactive)
same,AC50,cells [5],> 52 µM (inactive)
COc1ccccc1C(=O)Nc1cccc(NC(=O)c2ccccc2)c1,IC50,[6],1.74 µM (active)
CN(C(=O)Cc1cccs1)c1nc2c(s1)CCCC2,IC50,[7],2.92 µM (active)
CO[C@H]1CN(C)C(=O)c2ccc(NC(=O)Nc3cc(Cl)cc(Cl)c3)cc2OC[C@H](C)NC[C@@H]1C,AC50,[8],30.9 µM (active)
same,AC50,[9],41.1 µM (active)
O=C(/C=C/c1ccccc1)N1CCC(c2ccccc2)C1 (stereo unspecified),EC50,[10],> 67.5 µM (inactive)
Cc1cc(C)c2nc(N3CCN(C(=O)c4ccco4)CC3)sc2c1,EC50,cells [11],> 350 µM (not active)
same,EC50,cells [12],55.3 µM (active)
same,IC50,[13],> 67.5 µM (inactive)
same,IC50,cells [14],> 67.5 µM (inactive)
O=C(Nc1ccc2c(c1)OCO2)c1cc(C2CCCCN2C(=O)OCCF)on1 (stereo unspecified),AC50,Vero,31.8 µM (active)
Cc1c(N2C(=O)c3cccc4cccc(c34)C2=O)c(=O)n(-c2ccccc2)n1C,IC50,[15],> 122 µM (inactive)
same,IC50,[16],> 122 µM (inactive)
COc1ccc(C#Cc2ccc(C(=O)N3CC4CCC(=O)C4C3)cc2)cc1 (stereo unspecified),IC50,[17],2.05 µM
O=C(CSc1nnc(NC(=O)c2ccccc2[N+](=O)[O-])s1)NCc1ccco1,IC50,Beta-lactamase [18],> 59.6 µM (inactive)
same,IC50,Beta-lactamase [19],> 59.6 µM (inactive)
same,IC50,Beta-lactamase [20],> 59.6 µM (inactive)
CC1CC(=O)NN=C1c1ccc(N(C)C)c([N+](=O)[O-])c1 (stereo unspecified),EC50,[21],0.149 µM (active)
same,EC50,[22],> 112 µM (not active)
same,IC50,Galanin receptor type 3,1.72 µM (active)
same,EC50,cells [23],> 29.9 µM (inactive)
CN(CC(=O)N1CCN(c2ccccn2)CC1)S(=O)(=O)c1ccc(Cl)cc1,EC50,[24],0.0396 µM (active)
same,EC50,[25],0.357 µM (active)
C=CCc1c(O)c(CC)cc2c(C)cc(=O)oc12,AC50,cells [26],0.903 µM (active)
COc1ccccc1-c1ccc(-c2cn(C(=O)N3CCCCC3Cc3ccccc3)nn2)cc1 (stereo unspecified),IC50,[27],0.056 µM (active)
same,IC50,[28],0.001 µM (active)
same,IC50,[29],0.1 µM (active)
COc1ccc(C(=O)OCC(=O)c2c[nH]c3ccccc23)cc1OC,EC50,[30],> 20 µM (inactive)
same,AC50,[31],164 µM (active)
C=CCn1c(CCNC(=O)c2cccs2)nnc1SCC(=O)c1ccc(Cl)cc1,EC50,[32],0.00153 µM (active)
same,EC50,[24],0.167 µM (active)
COc1ccc(NC(=O)c2ccc(OC(=S)N(C)c3ccc(OC)cc3)cc2)cc1,IC50,Beta-galactosidase,> 80 µM (inactive)
COc1ccc(Cc2nnc(SCC(=O)N3CCc4ccccc4C3)o2)cc1,IC50,[33],10.3 µM (active)
same,IC50,[34],72.5 µM (inactive)
same,IC50,Caspase-3,48.1 µM (active)

# From ChEMBL document CHEMBL1201862, “PubChem BioAssay data set” (2004)
